Experimental findings from BindingDB's records for doi:10.1016/j.ejmech.2015.01.009 (Universiti Teknologi Mara (Uitm), 2015) are described below.

The assay can be described thus: Inhibition of alpha-glucosidase (unknown origin) using pNPG substrate incubated for 15 mins by microplate reader based method.

One may read the IC50 as the concentration needed to halve the response being measured. `O=C(N/N=C/c1ccc([N+](=O)[O-])cc1)c1ccc(-c2nc3ccccc3s2)cc1` gave an IC50 of 26.4 µM.
To `O=C(N/N=C/c1ccc(F)cc1)c1ccc(-c2nc3ccccc3s2)cc1` belongs 7.12 µM.
Under `COc1cc(/C=N/NC(=O)c2ccc(-c3nc4ccccc4s3)cc2)cc(OC)c1` stands 16.2 µM; under `O=C(N/N=C/c1ccccc1)c1ccc(-c2nc3ccccc3s2)cc1`, 8.05 µM; under `O=C(N/N=C/c1ccc(F)c(Br)c1)c1ccc(-c2nc3ccccc3s2)cc1`, 28 µM.
To `COc1ccc(/C=N/NC(=O)c2ccc(-c3nc4ccccc4s3)cc2)cc1` belongs 18.3 µM; to `O=C(N/N=C/c1c(O)cc(O)cc1O)c1ccc(-c2nc3ccccc3s2)cc1`, 8.37 µM; to `O=C(N/N=C/c1ccc(O)c(Br)c1)c1ccc(-c2nc3ccccc3s2)cc1`, 8.07 µM.
With `O=C(N/N=C/c1ccc(Cl)cc1)c1ccc(-c2nc3ccccc3s2)cc1`, the IC50 turned out to be 5.31 µM.
Under `COc1cccc(/C=N/NC(=O)c2ccc(-c3nc4ccccc4s3)cc2)c1` stands 11.1 µM.
To `O=C(N/N=C/c1cccc(O)c1)c1ccc(-c2nc3ccccc3s2)cc1` belongs 9.21 µM; to `COc1cc(/C=N/NC(=O)c2ccc(-c3nc4ccccc4s3)cc2)ccc1O`, 53.3 µM; to `COc1ccc(/C=N/NC(=O)c2ccc(-c3nc4ccccc4s3)cc2)c(I)c1O`, 44.8 µM.
To `O=C(N/N=C/c1cc(O)ccc1O)c1ccc(-c2nc3ccccc3s2)cc1` belongs 11.8 µM; to `O=C(N/N=C/c1cc(O)cc(O)c1)c1ccc(-c2nc3ccccc3s2)cc1`, 11.1 µM.
Compound `COc1ccc(O)c(/C=N/NC(=O)c2ccc(-c3nc4ccccc4s3)cc2)c1` displayed an IC50 of 6.5 µM.
To `O=C(N/N=C\c1ccccn1)c1ccc(-c2nc3ccccc3s2)cc1` belongs 10.2 µM.
Under `O=C(N/N=C/c1ccc(O)cc1)c1ccc(-c2nc3ccccc3s2)cc1` stands 11.3 µM.
`O=C(N/N=C/c1cccs1)c1ccc(-c2nc3ccccc3s2)cc1` showed a concentration for half-maximal inhibition (IC50) of 8.48 µM.
In turn, `O=C(N/N=C/c1cccc(O)c1O)c1ccc(-c2nc3ccccc3s2)cc1` came in with an IC50 of 11.2 µM.
For the compound `COc1ccc(/C=N/NC(=O)c2ccc(-c3nc4ccccc4s3)cc2)c(O)c1`, the IC50 came out at 6.97 µM.
To `O=C(N/N=C/c1ccccc1O)c1ccc(-c2nc3ccccc3s2)cc1` belongs 5.55 µM; to `O=C(N/N=C\c1ccco1)c1ccc(-c2nc3ccccc3s2)cc1`, 12.8 µM; to `O=C(N/N=C/c1ccc(O)c(O)c1)c1ccc(-c2nc3ccccc3s2)cc1`, 15.1 µM.
To `O=C(N/N=C/c1ccc(O)cc1O)c1ccc(-c2nc3ccccc3s2)cc1` belongs 5.58 µM.
